Source: US20050159427A1, “N-acylsulfonamide apoptosis promoters” (priority 2003, published 2005)

How the values were obtained:
Assay in all cases: Tumor cell viability (TABLE 1)
Format in all cases: cell-based
IGROV-1 = conditions: Homo sapiens, read-out: EC50 (50% reduction in cell viability); IGROV-1 (Ovarian); serum-free conditions, 48 hour treatment; mean ± SEM
OVCAR-5 = conditions: Homo sapiens, read-out: EC50 (50% reduction in cell viability); OVCAR-5 (Ovarian); serum-free conditions, 48 hour treatment; mean ± SEM
OVCAR-3 = conditions: Homo sapiens, read-out: EC50 (50% reduction in cell viability); OVCAR-3 (Ovarian); serum-free conditions, 48 hour treatment; mean ± SEM
D54MG = conditions: Homo sapiens, read-out: EC50 (50% reduction in cell viability); D54MG (Glioma); serum-free conditions, 48 hour treatment; mean ± SEM

## CN(C)CC[C@H](CSc1ccccc1)Nc1ccc(S(=O)(=O)NC(=O)c2ccc(N3CCN(Cc4ccccc4-c4ccc(Cl)cc4)CC3)cc2)cc1[N+](=O)[O-] [EXAMPLE 2, N-(4-(4-((4′-chloro(1,1′-biphenyl)-2-yl)methyl)piperazin-1-yl)benzoyl)-4-(((1R)-3-(dimethylamino)-1-((phenylsulfanyl)methyl)propyl)amino)-3-nitrobenzenesulfonamide]
IGROV-1
  EC50: 1700 ± 600 nM
OVCAR-5
  EC50: 1100 nM
OVCAR-3
  EC50: 1900 ± 300 nM
D54MG
  EC50: 3100 ± 2500 nM
